From PubChem BioAssay (NCI)
Several values for one entry are separate records, joined by “and”; a condition that tells them apart may be missing. Equal values may be shown once.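 Cultured in 96-well plates, cells were exposed to test compound for 48 hours across five concentrations. The concentration for 50% growth inhibition is given as GI50. TGI: total growth inhibition.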

Legend:
Assay in all cases: inhibition of tumour cell growth, NCI panel, 48 h
CAKI-1 renal = tested on: CAKI-1 renal
NCI-H226 lung = tested on: NCI-H226 lung
OVCAR-3 ovarian = tested on: OVCAR-3 ovarian
LOX IMVI melanoma = tested on: LOX IMVI melanoma
UO-31 renal = tested on: UO-31 renal
UACC-62 melanoma = tested on: UACC-62 melanoma
UACC-257 melanoma = tested on: UACC-257 melanoma
HT29 colon = tested on: HT29 colon
COLO 205 colon = tested on: COLO 205 colon
SF-539 CNS = tested on: SF-539 CNS

Compound	TGI (CAKI-1 renal) [µM]	TGI (NCI-H226 lung)	TGI (OVCAR-3 ovarian)	TGI (LOX IMVI melanoma) [µM]	TGI (UO-31 renal)	TGI (UACC-62 melanoma) [µM]	TGI (UACC-257 melanoma) [µM]	TGI (HT29 colon)	GI50 (NCI-H226 lung)	GI50 (OVCAR-3 ovarian)	GI50 (COLO 205 colon) [µM]	TGI (COLO 205 colon) [µM]	GI50 (LOX IMVI melanoma) [µM]	GI50 (UO-31 renal)	GI50 (UACC-62 melanoma)	GI50 (SF-539 CNS)	TGI (SF-539 CNS)	GI50 (UACC-257 melanoma) [µM]	GI50 (HT29 colon)	GI50 (CAKI-1 renal) [µM]
CC(CO)[C@H]1OC(=O)C=C2[C@@]13O[C@@H]3[C@H]1OC(=O)[C@@]3(C)[C@H]4O[C@H]4C[C@@]2(C)[C@@H]13 (some centres undefined)	8.25	5.47 µM	> 30.1 µM	1.14	6.41 µM	7.36	> 26.1	20.7 µM	–	–	–	–	–	–	–	–	–	–	–	–
Cc1ccc(C(=O)/C(=C/c2ccc([N+](=O)[O-])cc2)S(=O)Cc2ccccc2)cc1 (centres undefined)	–	4.72 µM	2.57 µM	1.67	2.55 µM	2.79	3.08	2.44 µM	1.71 µM	1.28 µM	1.47	3.16	0.417	1.17 µM	1.3 µM	1.69 µM	3.1 µM	1.65	1 µM	–
Cc1nc(SCC(N)=O)c2sc(=S)n(-c3ccccc3)c2n1	> 10	> 10 µM	> 10 µM	> 10	–	> 10	> 10	> 10 µM	–	–	–	> 10	–	–	–	–	> 10 µM	–	–	–
CC[N+]1(C)CCC(O)(c2ccc(C)cc2)C(C(=O)c2ccc(C)cc2)C1 (centres undefined)	61.4	> 100 µM	39.6 µM	–	> 100 µM	> 100	> 100	> 100 µM	–	–	–	55.7	–	–	–	–	> 100 µM	–	–	–
C[C@]12CC[C@@H]3c4ccc(O)c([N+](=O)[O-])c4CC[C@H]3[C@@H]1CC[C@@H]2NS(=O)(=O)c1ccc(C(F)(F)F)cc1	6.24	3.78 µM	–	3.07	3.19 µM	2.78	4.74	3.71 µM	1.62 µM	–	3.05	9.4	1.67	1.5 µM	1.34 µM	1.77 µM	3.39 µM	1.87	2.03 µM	2.17
COC(=O)C1=CCON(c2ccccc2)C1c1ccccc1 (centres undefined)	> 100	> 100 µM	> 100 µM	> 100	> 100 µM	> 100	–	> 100 µM	–	–	–	> 100	–	–	–	–	> 100 µM	–	–	–
COc1cc(-c2csc(NC(=O)c3cc(C(F)(F)F)cc(C(F)(F)F)c3)n2)cc(OC)c1OC	> 100	–	19 µM	> 100	> 100 µM	–	–	> 100 µM	–	2.98 µM	2.63	7.29	2.92	2.57 µM	–	3.35 µM	> 100 µM	–	2.07 µM	2.63
COc1ccc(-n2nnc3c(sc4ccccc43)c2=O)cc1	–	–	–	> 100	–	> 100	> 100	–	–	–	> 100	> 100	> 100	–	> 100 µM	–	–	> 100	–	–
Cc1c(C)c2cc3c(=O)ccoc3c(C)c2oc1=O	–	> 100 µM	> 100 µM	> 100	> 100 µM	> 100	> 100	–	–	–	–	> 100	–	–	–	–	> 100 µM	–	–	–
CC(C)N(C(=O)C12C3C4C1C1C2C3C41C(O)C(C)(C)C)C(C)C (centres undefined)	> 50	–	> 50 µM	–	> 50 µM	> 50	–	> 50 µM	–	–	–	> 50	–	–	–	–	> 50 µM	–	–	–
CC(C)c1cccc(C(C)C)c1NC(=O)C(=O)C(C(=O)c1ccccc1-c1ccccc1)C1OC(=O)c2ccccc21 (centres undefined)	76.5	–	–	31.1	36.5 µM	44.1	29.9	43.9 µM	–	–	–	81.5	–	–	–	–	27.9 µM	–	–	–
CC(C)c1ccc2nc3ccc(C(=O)NCCN(C)C)cn3c(=O)c2c1	45	37.1 µM	> 100 µM	–	29.5 µM	32.3	27.8	24.5 µM	–	–	–	33.8	–	–	–	–	29.2 µM	–	–	–
Clc1ccccc1NN(Cc1ccccn1)c1ccccc1Cl	91.9	31.6 µM	32.9 µM	32.8	34.8 µM	43.8	–	29.4 µM	–	–	–	31.3	–	–	–	–	36.6 µM	–	–	–
COc1ccc(C2C(Cl)C(=O)N2n2cnc3ccccc3c2=O)cc1OC (centres undefined)	> 100	> 100 µM	> 100 µM	> 100	> 100 µM	> 100	> 100	> 100 µM	–	–	–	> 100	–	–	–	–	–	–	–	–
O=C1c2ccccc2N2OC3(N4CCCC4)CCCC3C12c1ccccc1 (centres undefined)	–	> 100 µM	–	–	> 100 µM	> 100	> 100	> 100 µM	–	–	–	> 100	–	–	–	–	> 100 µM	–	–	–
COc1ccc(OC)c(-c2cc(-c3ccccc3)nn2-c2ccc(S(=O)(=O)NC(C)=O)cc2)c1	33.9	24.8 µM	9.55 µM	–	> 100 µM	22.9	–	–	11.7 µM	2.82 µM	–	–	–	25.3 µM	10.9 µM	28.1 µM	60.4 µM	–	–	13.9
CC(C)(C)OC(=O)NCC(C#N)CNC(=O)OC(C)(C)C	–	> 100 µM	> 100 µM	> 100	> 100 µM	> 100	> 100	–	–	–	–	> 100	–	–	–	–	> 100 µM	–	–	–
Cc1cc(N(CCNc2ccnc3cc(Cl)ccc23)Cc2ccc3c(c2)OCO3)nc(N2CCN(C)CC2)n1	–	36.8 µM	10.9 µM	3.66	2.85 µM	3.51	3.79	5.96 µM	17.7 µM	2.73 µM	1.86	3.69	1.79	1.43 µM	1.9 µM	1.78 µM	3.33 µM	2.01	1.84 µM	–
COc1cc(-c2oc3ccccc3c(=O)c2O)cc(OC)c1OC	> 100	–	> 100 µM	> 100	> 100 µM	> 100	> 100	> 100 µM	–	–	–	> 100	–	–	–	–	> 100 µM	–	–	–
CN1C2CC(C#N)C1C=CC2=O (centres undefined)	–	59.6 µM and > 100 µM	30.7 µM and > 100 µM	–	24.1 µM and > 100 µM	> 100	–	59.5 µM and > 100 µM	24 µM and > 100 µM	15.5 µM and > 100 µM	–	–	–	11.4 µM and > 100 µM	27.7 µM and 63.2 µM	18.6 µM and > 100 µM	43.2 µM and > 100 µM	–	17.5 µM and 83.8 µM	–
